In ChEMBL document CHEMBL1136400, “Substituted bridged phenyl piperidines: orally active growth hormone secretagogues” (Bioorg Med Chem Lett, 2003):
pEC50: −log10 of the molar value.

Species on record: Rattus norvegicus
Test: Effective concentration for their ability to release growth hormone in the rat pituitary cell assay
Type: functional, organism-based, Pituitary gland cell
Conditions: Rattus norvegicus, Pituitary gland cell

Point of comparison: `CCNC(=O)c1ccccc1C1CC2CCC(C1)N2C(=O)[C@@H](CCCc1ccccc1)NC(=O)C(C)(C)N` (mixture of isomers), pEC50 8.89. Against it:
- CC(C)(N)C(=O)N[C@H](Cc1c[nH]c2ccccc12)C(=O)N1C2CCC1CC(c1ccccc1)C2 (mixture of isomers) — 1.69 log units lower, 7.20
- Cc1ccccc1C1CC2CCC(C1)N2C(=O)[C@@H](CCCc1ccccc1)NC(=O)C(C)(C)N (mixture of isomers) — 1.78 log units lower, 7.11
- CC(C)(N)C(=O)N[C@H](CCCc1ccccc1)C(=O)N1C2CCC1CC(c1ccccc1)C2 (mixture of isomers) — 1.27 log units lower, 7.62
- Cc1ccccc1C1CC2CCC(C1)N2C(=O)[C@@H](Cc1c[nH]c2ccccc12)NC(=O)C(C)(C)N (mixture of isomers) — 1.41 log units lower, 7.48
- CC(C)(N)C(=O)N[C@H](COCc1ccccc1)C(=O)N1CCC2(CC1)CN(S(C)(=O)=O)c1ccccc12 [IBUTAMOREN] — within 0.2 log units, 9.00

Same assay, conditions: pituitary gland cell

Point of comparison: `CC(C)(N)C(=O)N[C@H](CCCc1ccccc1)C(=O)N1C2CCC1CC(c1ccccc1C(=O)O)C2` (stereo in doubt; 26g), pEC50 8.02. Against it:
- CCOC(=O)c1ccccc1C1CC2CCC(C1)N2C(=O)[C@@H](CCCc1ccccc1)NC(=O)C(C)(C)N (mixture of isomers) — 0.97 log units lower, 7.05
- CCOC(=O)c1ccccc1C1CC2CCC(C1)N2C(=O)[C@@H](CCCc1ccccc1)NC(=O)C(C)(C)N (stereo in doubt; 26f) — 0.70 log units lower, 7.32
- CCOC(=O)c1ccccc1C1CC2CCC(C1)N2C(=O)[C@@H](CCCc1ccccc1)NC(=O)C(C)(C)N (stereo in doubt; 26h) — 1.53 log units lower, 6.49
- CC(C)(N)C(=O)N[C@H](CCCc1ccccc1)C(=O)N1C2CCC1CC(c1ccccc1C(=O)O)C2 (stereo in doubt; 26i) — lower, < 6.30
